Test results reported in patent US6737383B1, “Herbicidal oxadiazolidines” (priority 1999, dated 2004).

Columns and labels:
[1] = tested on: bedstraw; experiment: Test B pre/postemergence bedstraw; assay type: in vivo, Galium aparine; details: Preemergence; for Bedstraw plant response rating: scale 0 to 10, 0 is no effect, 10 is complete control
Outline: (§1)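 Test chemicals in a non-phytotoxic solvent mixture with surfactant were sprayed preemergence onto planted seeds and postemergence onto plants 2 to 18 cm tall (1- to 4-leaf stage). After twelve to sixteen days in a greenhouse, injury was visually rated against untreated controls from 0 (no effect) to 10 (complete control).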

[2] = tested on: blackgrass; experiment: Test B pre/postemergence blackgrass; assay type: in vivo, Alopecurus myosuroides
Outline: as §1

[3] = tested on: surinam grass; experiment: Test B pre/postemergence surinam grass; assay type: in vivo, Brachiaria decumbens
Outline: as §1

[4] = tested on: cocklebur; experiment: Test B pre/postemergence cocklebur; assay type: in vivo, Xanthium strumarium
Outline: as §1

[5] = tested on: corn; experiment: Test B pre/postemergence corn; assay type: in vivo, Zea mays
Outline: as §1

[6] = tested on: crabgrass; experiment: Test B pre/postemergence crabgrass; assay type: in vivo, Digitaria sanguinalis
Outline: as §1

[7] = tested on: giant foxtail; experiment: Test B pre/postemergence giant foxtail; assay type: in vivo, Setaria faberii
Outline: as §1

[8] = tested on: morningglory; experiment: Test B pre/postemergence morningglory; assay type: in vivo, Ipomoea hederacea
Outline: as §1

[9] = tested on: pigweed; experiment: Test B pre/postemergence pigweed; assay type: in vivo, Amaranthus retroflexus
Outline: as §1

[10] = tested on: rape; experiment: Test B pre/postemergence rape; assay type: in vivo, Brassica napus
Outline: as §1

[11] = tested on: soybean; experiment: Test B pre/postemergence soybean; assay type: in vivo, Glycine max
Outline: as §1

[12] = tested on: sugar beet; experiment: Test B pre/postemergence sugar beet; assay type: in vivo, Beta vulgaris
Outline: as §1

[13] = tested on: velvetleaf; experiment: Test B pre/postemergence velvetleaf; assay type: in vivo, Abutilon theophrasti
Outline: as §1

[14] = tested on: wheat; experiment: Test B pre/postemergence wheat; assay type: in vivo, Triticum aestivum
Outline: as §1

[15] = tested on: wild oat; experiment: Test B pre/postemergence wild oat; assay type: in vivo, Avena fatua
Outline: as §1

[16] = tested on: purple nutsedge; experiment: Test B pre/postemergence purple nutsedge; assay type: in vivo, Cyperus rotundus
Outline: as §1

[17] = tested on: rice; experiment: Test B flood test rice; assay type: in vivo, Oryza sativa
Outline: (§2)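 Plants were grown to the 2-leaf stage before treatment with test chemical, then held in a greenhouse for twelve to sixteen days. Injury was visually rated against untreated controls on a 0–10 scale, where 0 is no effect and 10 is complete control.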

[18] = tested on: smallflower flatsedge; experiment: Test B flood test smallflower flatsedge; assay type: in vivo, Cyperus difformis
Outline: as §2

[19] = tested on: duck salad; experiment: Test B flood test duck salad; assay type: in vivo, Heteranthera limosa
Outline: as §2

[20] = tested on: bamyardgrass; experiment: Test B flood test barnyardgrass; assay type: in vivo, Echinochloa crus-galli
Outline: as §2

[21] = Postemergence, Rate 62 g/ha, scale of 0 to 10, 0 is no effect, 10 is complete control
[22] = Postemergence, Rate 125 g/ha, scale 0 to 10, 0 is no effect, 10 is complete control
[23] = Postemergence, Rate 250 g/ha, scale 0 to 10
[24] = Postemergence, Rate 500 g/ha, scale 0 to 10, 0 is no effect, 10 is complete control
[25] = Preemergence, Rate 62 g/ha, scale of 0 to 10 where 0 is no effect and 10 is complete control
[26] = Preemergence, Rate 125 g/ha, scale 0 to 10, 0 is no effect, 10 is complete control
[27] = Preemergence, Rate 250 g/ha, scale 0 to 10, 0 is no effect, 10 is complete control
[28] = Preemergence, Rate 500 g/ha, scale of 0 to 10 where 0 is no effect and 10 is complete control
[29] = Rate 62 g/ha, flood test species, Pre-emergence, visual evaluation after twelve to sixteen days
[30] = Rate 125 g/ha, under heading Pre-emergence, flood test species, visual evaluation after twelve to sixteen days
[31] = Rate 250 g/ha, Pre-emergence (flood test species), scale 0 to 10, 0 is no effect, 10 is complete control
[32] = Rate 500 g/ha, Pre-emergence section of Table B, 0 to 10 scale (0 no effect, 10 complete control)

CC(C)N(C(=O)n1oc(=O)n(CC2CC2)c1=O)c1ccc(F)cc1F [Compound 509]
Plant response rating, Bedstraw ([1]; Rate 62 g/ha, scale of 0 to 10 where 0 is no effect and 10 is complete control): 0
Bedstraw plant response rating ([1]; Rate 125 g/ha): 0
Bedstraw plant response rating ([1]; Rate 250 g/ha): 10
Bedstraw plant response rating ([1]; Rate 500 g/ha): 9
Blackgrass plant response rating [2, 21]: 2
Blackgrass plant response rating [2, 22]: 5
Blackgrass plant response rating [2, 23]: 6
Plant response rating, Blackgrass [2, 24]: 9
Plant response rating, Blackgrass [2, 25]: 5
Blackgrass plant response rating [2, 26]: 7
Blackgrass plant response rating [2, 27]: 8
Blackgrass plant response rating [2, 28]: 10
B. signalgrass plant response rating [3, 21]: 0
B. signalgrass plant response rating [3, 22]: 0
B. signalgrass plant response rating ([3]; Postemergence, Rate 250 g/ha, scale 0 to 10, 0 no effect, 10 complete control): 2
Plant response rating, B. signalgrass [3, 24]: 7
Plant response rating, B. signalgrass [3, 25]: 2
B. signalgrass plant response rating [3, 26]: 3
B. signalgrass plant response rating [3, 27]: 8
B. signalgrass plant response rating ([3]; Preemergence, Rate 500 g/ha, scale 0 to 10, 0 is no effect, 10 is complete control): 9
Cocklebur plant response rating [4, 21]: 0
Cocklebur plant response rating [4, 22]: 0
Cocklebur plant response rating [4, 23]: 0
Plant response rating, Cocklebur [4, 24]: 4
Plant response rating, Cocklebur [4, 25]: 0
Cocklebur plant response rating [4, 26]: 0
Cocklebur plant response rating [4, 27]: 0
Cocklebur plant response rating [4, 28]: 5
Corn plant response rating [5, 21]: 0
Corn plant response rating [5, 22]: 0
Corn plant response rating [5, 23]: 0
Plant response rating, Corn [5, 24]: 1
Plant response rating, Corn [5, 25]: 0
Corn plant response rating [5, 26]: 0
Corn plant response rating [5, 28]: 6
Crabgrass plant response rating [6, 21]: 3
Crabgrass plant response rating [6, 22]: 9
Crabgrass plant response rating [6, 23]: 9
Plant response rating, Crabgrass [6, 24]: 9
Plant response rating, Crabgrass [6, 25]: 3
Crabgrass plant response rating [6, 26]: 7
Crabgrass plant response rating [6, 28]: 10
Giant foxtail plant response rating [7, 21]: 3
Giant foxtail plant response rating [7, 22]: 7
Plant response rating, Giant foxtail [7, 24]: 8
Plant response rating, Giant foxtail [7, 25]: 9
Giant foxtail plant response rating [7, 26]: 9
Giant foxtail plant response rating [7, 28]: 10
Plant response rating, Morningglory [8, 24]: 5
Plant response rating, Morningglory [8, 25]: 0
Morningglory plant response rating [8, 26]: 0
Morningglory plant response rating [8, 28]: 3
Redroot pigweed plant response rating [9, 21]: 0
Redroot pigweed plant response rating [9, 22]: 0
Plant response rating, Redroot pigweed [9, 24]: 5
Plant response rating, Redroot pigweed [9, 25]: 0
Redroot pigweed plant response rating [9, 26]: 0
Redroot pigweed plant response rating [9, 28]: 10
Rape plant response rating [10, 21]: 0
Rape plant response rating [10, 22]: 0
Plant response rating, Rape [10, 24]: 4
Plant response rating, Rape [10, 25]: 0
Rape plant response rating [10, 26]: 0
Rape plant response rating [10, 28]: 10
Soybean plant response rating [11, 21]: 1
Soybean plant response rating [11, 22]: 3
Plant response rating, Soybean [11, 24]: 5
Plant response rating, Soybean [11, 25]: 0
Soybean plant response rating [11, 26]: 0
Sugarbeets plant response rating [12, 21]: 0
Sugarbeets plant response rating [12, 22]: 0
Plant response rating, Sugarbeets [12, 24]: 7
Plant response rating, Sugarbeets [12, 25]: 0
Sugarbeets plant response rating [12, 26]: 4
Sugarbeets plant response rating [12, 28]: 7
Velvetleaf plant response rating [13, 21]: 2
Velvetleaf plant response rating [13, 22]: 4
Plant response rating, Velvetleaf [13, 24]: 7
Plant response rating, Velvetleaf [13, 25]: 3
Velvetleaf plant response rating [13, 26]: 6
Velvetleaf plant response rating [13, 28]: 8
Wheat plant response rating [14, 21]: 0
Wheat plant response rating [14, 22]: 0
Plant response rating, Wheat [14, 24]: 2
Plant response rating, Wheat [14, 25]: 0
Wheat plant response rating [14, 26]: 0
Wheat plant response rating [14, 28]: 7
Wild oats plant response rating [15, 21]: 0
Wild oats plant response rating [15, 22]: 0
Plant response rating, Wild oats [15, 24]: 8
Plant response rating, Wild oats [15, 25]: 0
Wild oats plant response rating [15, 26]: 2
Wild oats plant response rating [15, 28]: 9
Nutsedge plant response rating [16, 21]: 0
Nutsedge plant response rating [16, 22]: 0
Plant response rating, Nutsedge [16, 25]: 0
Nutsedge plant response rating [16, 26]: 0
Nutsedge plant response rating [16, 28]: 0
Plant response rating, Rice (0 to 10 scale, 0 is no effect, 10 is complete control) [17, 29]: 0
Rice plant response rating (0 to 10 scale, 0 is no effect, 10 is complete control) [17, 30]: 0
Rice plant response rating [17, 31]: 0
Rice plant response rating [17, 32]: 0
Plant response rating, S. Flatsedge (0 to 10 scale, 0 is no effect, 10 is complete control) [18, 29]: 0
S. Flatsedge plant response rating (0 to 10 scale, 0 is no effect, 10 is complete control) [18, 30]: 0
S. Flatsedge plant response rating [18, 31]: 0
S. Flatsedge plant response rating [18, 32]: 0
Plant response rating, Ducksalad (0 to 10 scale, 0 is no effect, 10 is complete control) [19, 29]: 0
Ducksalad plant response rating (0 to 10 scale, 0 is no effect, 10 is complete control) [19, 30]: 0
Ducksalad plant response rating [19, 31]: 0
Ducksalad plant response rating [19, 32]: 0
Plant response rating, Barnyardgrass (0 to 10 scale, 0 is no effect, 10 is complete control) [20, 29]: 0
Barnyardgrass plant response rating (0 to 10 scale, 0 is no effect, 10 is complete control) [20, 30]: 0
Barnyardgrass plant response rating [20, 31]: 0
Barnyardgrass plant response rating [20, 32]: 0
